Laboratory results taken from US12338263B2, “Antibacterial aminoglycoside derivatives” (priority 2019, dated 2025).

Legend:
[1] = Toxicity test on HK-2 cells (Alma Blue); assay type: cell-based; settings: human, 43 hours incubation plus 3 hours Alma Blue, read-out: CC50 of HK-2 cell
Protocol: (§1) On the day of the experiment, when the HK-2 cells in the culture flask reached 80%-90% confluent, the culture medium was discarded, the cells were washed twice with Dulbecco's phosphate buffered saline (DPBS) and digested for 1 to 2 minutes with 3 mL trypsin (T150 cell culture flask), and immediately 9 ml complete medium (RPMI1640+10% FBS) were added to terminate the digestion. After termination, single cells suspension were formed by pipetting gently, which were centrifuged at 1000 […] for 5 minutes. The supernatant was discarded, and fresh complete medium were added, and the cells were pipetted evenly. The actual cell density was measured according to the cell counter and the cell suspension was adjusted to 2.5×10^5 cells/mL. 80 μL of cell suspension was drawn by a row pipettor and added into a 96-well black bottom plate (2×10^4 cell/well), and then incubated in a carbon dioxide incubator for 4.5 hours, which was defined as a cell plate.
(§2) • a. The compound mother liquor was prepared according to the following table, with complete medium as the solvent;
(§3) • b. 50 microliters of complete medium was added into columns 3-11 in the 96-v well plate; • c. 75 microliters of test compound (50 mg/mL) and positive control were added to the second column of the 96-v well plate; • d. 25 microliters of compound was drawn from the second column and added into the third column, blown and sucked a few times by a row pipettor, then 25 microliters of liquid was drawn from the third column and added to the fourth column, and subsequently subjected to a 3-fold series dilution until the 10th column. From column 2 to column 11, the compound concentration was 50, 16.67, 5.56, 1.85, 0.62, 0.21, 0.07, 0.02, 0.008, 0 mg/mL; • e. 20 μL compound solutions of various concentrations prepared were transferred by a row pipettor to the corresponding wells of the cell plate, which was defined as a testing plate. Culture of the Testing Plate:
(§4) All the plates were incubated in an incubator at 37° C., 5% CO2 for 43 hours.
(§5) After incubation, 10 microliters of Alma Blue was added to the testing plate. The testing plate was immediately incubated in an incubator at 37° C., 5% CO2 for 3 hours. Then the fluorescence value of each well of the testing plate was read by a microplate reader (wavelength Ex 540 nm/Em 585 nm). Then prism software was used to simulate the curve to calculate CC50 value.

[2] = system: HK-2 cells; assay: Toxicity test on HK-2 cells (Alma Blue); assay type: cell-based
Protocol: as §1, §2, §3, §4, §5

[3] = Study on pharmacokinetics in mice; assay type: in vivo, CD-1 mice; settings: mouse, plasma, CD-1 male mice, 1 mg/kg single intravenous injection
Protocol: CD-1 male mice aged 7 to 10 weeks were selected and treated by intravenous administration at the dose of 1 mg/kg. The mice were fasted for at least 12 hours before the administration, and resumed feeding 4 hours after the administration. The mice were free to drink during the entire experiment.
On the day of the experiment, the animals in the intravenous group were administered with corresponding compound by a single injection via tail vein with an administration volume of 5 mL/kg. The animals were weighed before the administration, and the administration volume was calculated based on the body weight. The sample collection time was: 0.083, 0.25, 0.5, 1, 2, 4, 8, and 24 h. Approximately 30 μL whole blood was collected through the saphenous vein at each time point to prepare plasma for high performance liquid chromatography-tandem mass spectrometry (LC-MS/MS) to determine the concentration.
All animals were subjected to euthanasia under CO2 anesthesia after the PK samples at the last time point were collected. The non-compartmental model of the pharmacokinetic software WinNonlin™ Version 6.3 (Pharsight, Mountain View, CA) was used to process the data of plasma concentration, and the linear log-trapezoidal method was used to calculate the pharmacokinetic parameters.

[4] = system: auditory function in guinea pigs; assay: Auditory safety: compound action potential (CAP) in guinea pigs; assay type: in vivo; settings: guinea pig, in vivo, sc, 100 mg/kg
Protocol: Healthy adult guinea pigs (150-250 g) were employed as the research objects, and were randomly divided into saline control group, gentamicin group, compound Plazomicin group and Compound 1 group, with 8 animals in each group. Subcutaneous administration is used, and the following assays were carried out during and after the administration for 14 consecutive days: • 1. To analyze the effects of different drugs on the auditory function of guinea pigs, the compound action potential (CAP) of animals was recorded on the 14th day (29th day, i.e., 4 weeks) after administration. The results obtained were analyzed and the changes of the threshold shift, amplitude, latency and other indicators among different treatment groups were compared. • 2. After the different groups of animals were processed and the auditory function data thereof were collected, the cochlea of the animals was taken out for fixation and staining. Surface preparation of basilar membrane of the cochlea on one side was performed to count the loss of hair cells so as to make a cochlea map, and the cochlea on the other side was decalcified and frozen sectioned. The density of spiral ganglion neurons was counted and compared among groups. Research Results: 1. Administration Method and Treatment
Gentamicin from Dalian Meilun Biotechnology Co., Ltd., and Plazomicin and Compound 1 from WuXi AppTec (WuHan) Co., Ltd. are used, the solution of which were prepared just before use each time by using saline for dissolution to the concentration of 50 mg/mL, and the injection dose was 100 mg/kg body weight. Method: subcutaneous injection, and confirmation of no liquid leakage after each injection.
The compound action potential (CAP) was tested and recorded when clicks and different frequencies of pure tones (1 KHz-32 kHz) were applied to each group of animals, and variations in amplitude and latency were mainly compared when clicks and medium and high frequency pure tones (16, 32 kHz) were applied. The magnitude of amplitude reflects the responsiveness of hair cells and auditory nerves. The larger the amplitude and the greater the slope of the I/O curve were, the better the responsiveness and the better the function were. In addition, the cochlea from apical turn to basal turn was responsive to sounds from low-frequency to high-frequency respectively, which is the frequency correspondence of the cochlear basilar membrane. The functional changes to different frequencies correspond to the different structural and functional changes of the cochlea fromapical turn to basal turn. The length of latency was also related to the function of the hair cells and auditory nerve response. Generally speaking, increasing of the threshold value when the cochlea was injured would inevitably lead to the extension of latency. […] In other words, the extension of latency reflected the decrease of response function. The previous ototoxicity of aminoglycoside antibiotics was mainly concentrated in the high-frequency area. In this study, the gentamicin group was consistent with previous results, as summarized below.

## CN[C@@H]1[C@@H](O)[C@@H](O[C@@H]2[C@@H](O)[C@H](O[C@H]3OC(CNCCOCCONC(=N)N)=CC[C@H]3N)[C@@H](N)C[C@H]2NC(=O)[C@@H](O)CCN)OC[C@]1(C)O [Compound 1]
[1]
  CC50 at 43 h: > 10000 µg/mL
[2]
  toxicity to HK-2 cells compared with Netilmicin and Amikacin: significantly lower than that of Netilmicin and Amikacin
[2]; 43 hours incubation plus 3 hours Alma Blue
  Maximum inhibition rate: 21.96%
[2]; toxicity regression curve and software prediction (FIG. 8-11)
  toxicity to HK-2 cells compared with Plazomicin: lower than Plazomicin
[3]; read-out: Area Under the Curve AUC
  AUC: 1.92 µM·h
[3]; read-out: Clearance Rate Cl
  clearance: 15.1 mL/min/kg
[3]; read-out: Half-Life T1/2 (converted)
  half-life: 23.8 min
[3]; read-out: Maximum Concentration Cmax
  Cmax: 7.09 µM
[3]; read-out: Volume of Distribution Vd
  Vd: 0.369 L/kg
[4]
  CAP amplitude under click: consistent with the Control group
  hearing damage (CAP amplitude) at 16 kHz: no different from the Control group
  hearing damage to experimental animals (CAP amplitude, overall): significantly lower than that of Gentamicin and Plazomicin
[4]; 29 day
  CAP amplitude at 16 kHz: 381.646±20.895 uv
  CAP amplitude at 32 kHz: 79.420±7.000 uv
  hearing damage (CAP amplitude) at 32 kHz: 34.7%
  reduction of hearing damage at 32 kHz compared to Gentamicin: 39.6%
  reduction of hearing damage at 32 kHz compared to Plazomicin: 13.5%
